In one assay the test system is Colo205 cells. In words: Analysis of cell proliferation and viability. It is filed as cell-based. The note with it: Homo sapiens, read-out: IC50 value.
The next assay addresses T1, human Itk kinase (Homo sapiens, UniProt Q08881).
T1 sequence (Q08881 1-620): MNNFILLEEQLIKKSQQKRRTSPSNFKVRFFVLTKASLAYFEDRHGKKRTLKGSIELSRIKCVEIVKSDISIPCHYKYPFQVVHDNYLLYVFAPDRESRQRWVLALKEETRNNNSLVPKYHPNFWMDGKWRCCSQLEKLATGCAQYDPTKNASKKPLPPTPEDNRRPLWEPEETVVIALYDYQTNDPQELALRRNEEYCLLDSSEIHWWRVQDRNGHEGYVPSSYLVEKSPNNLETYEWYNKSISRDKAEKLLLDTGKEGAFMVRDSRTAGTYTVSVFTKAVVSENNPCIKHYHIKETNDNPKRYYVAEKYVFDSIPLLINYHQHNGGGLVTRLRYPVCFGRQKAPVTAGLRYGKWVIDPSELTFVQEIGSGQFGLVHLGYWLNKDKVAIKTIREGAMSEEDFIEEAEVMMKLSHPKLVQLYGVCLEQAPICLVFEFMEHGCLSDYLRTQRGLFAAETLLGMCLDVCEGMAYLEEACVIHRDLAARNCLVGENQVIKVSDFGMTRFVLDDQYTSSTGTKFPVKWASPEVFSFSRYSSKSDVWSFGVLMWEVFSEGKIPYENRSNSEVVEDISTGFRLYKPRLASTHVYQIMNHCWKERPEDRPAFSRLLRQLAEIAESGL
Put plainly: Itk inhibition assay: radioactivity-based assay. It is filed as biochemical. The note with it: Ki(app). The procedure: The compounds of the present invention were evaluated as inhibitors of human Itk kinase using a radioactivity-based assay. These compounds can also be evaluated using a spectrophotometric or alphascreen assay.
Assays were carried out in a mixture of 20 mM MOPS (pH 7.0), 10 mM MgCl2, 0.1% BSA and 1 mM DTT. Final substrate concentrations in the assay were 7.5 μM [γ-^33P]ATP (400 μCi ^33P ATP/μmol ATP, Amersham Pharmacia Biotech/Sigma Chemicals) and 3 μM peptide (SAM68 protein Δ332-443). Assays were carried out at 25° C. in the presence of 50 nM Itk. An assay stock buffer solution was prepared containing all of the reagents listed above, with the exception of ATP and the test compound of interest. 50 μL of the stock solution was placed in a 96 well plate followed by addition of 2 μL of DMSO stock containing serial dilutions of the test compound (typically starting from a final concentration of 50 μM with 2-fold serial dilutions) in duplicate (final DMSO concentration 2%). The plate was pre-incubated for 10 minutes at 25° C. and the reaction initiated by addition of 50 μL [γ-^33P]ATP (final concentration 7.5 μM).
The reaction was stopped after 10 minutes by the addition of 100 μL 0.2M phosphoric acid+0.01% TWEEN 20. A multiscreen phosphocellulose filter 96-well plate (Millipore, Cat no. MAPHNOB50) was pretreated with 100 μL 0.2M phosphoric acid+0.01% TWEEN 20 prior to the addition of 170 μL of the stopped assay mixture. The plate was washed with 4×200 μL 0.2M phosphoric acid+0.01% TWEEN 20. After drying, 30 μL Optiphase ‘SuperMix’ liquid scintillation cocktail (Perkin Elmer) was added to the well prior to scintillation counting (1450 Microbeta Liquid Scintillation Counter, Wallac).
Ki(app) data were calculated from non-linear regression analysis of the initial rate data using the Prism software package (GraphPad Prism version 3.0cx for Macintosh, GraphPad Software, San Diego Calif., USA).

Another assay has as its target T2, JAK3 (Homo sapiens, UniProt P52333).
T2 sequence (P52333 1-1124): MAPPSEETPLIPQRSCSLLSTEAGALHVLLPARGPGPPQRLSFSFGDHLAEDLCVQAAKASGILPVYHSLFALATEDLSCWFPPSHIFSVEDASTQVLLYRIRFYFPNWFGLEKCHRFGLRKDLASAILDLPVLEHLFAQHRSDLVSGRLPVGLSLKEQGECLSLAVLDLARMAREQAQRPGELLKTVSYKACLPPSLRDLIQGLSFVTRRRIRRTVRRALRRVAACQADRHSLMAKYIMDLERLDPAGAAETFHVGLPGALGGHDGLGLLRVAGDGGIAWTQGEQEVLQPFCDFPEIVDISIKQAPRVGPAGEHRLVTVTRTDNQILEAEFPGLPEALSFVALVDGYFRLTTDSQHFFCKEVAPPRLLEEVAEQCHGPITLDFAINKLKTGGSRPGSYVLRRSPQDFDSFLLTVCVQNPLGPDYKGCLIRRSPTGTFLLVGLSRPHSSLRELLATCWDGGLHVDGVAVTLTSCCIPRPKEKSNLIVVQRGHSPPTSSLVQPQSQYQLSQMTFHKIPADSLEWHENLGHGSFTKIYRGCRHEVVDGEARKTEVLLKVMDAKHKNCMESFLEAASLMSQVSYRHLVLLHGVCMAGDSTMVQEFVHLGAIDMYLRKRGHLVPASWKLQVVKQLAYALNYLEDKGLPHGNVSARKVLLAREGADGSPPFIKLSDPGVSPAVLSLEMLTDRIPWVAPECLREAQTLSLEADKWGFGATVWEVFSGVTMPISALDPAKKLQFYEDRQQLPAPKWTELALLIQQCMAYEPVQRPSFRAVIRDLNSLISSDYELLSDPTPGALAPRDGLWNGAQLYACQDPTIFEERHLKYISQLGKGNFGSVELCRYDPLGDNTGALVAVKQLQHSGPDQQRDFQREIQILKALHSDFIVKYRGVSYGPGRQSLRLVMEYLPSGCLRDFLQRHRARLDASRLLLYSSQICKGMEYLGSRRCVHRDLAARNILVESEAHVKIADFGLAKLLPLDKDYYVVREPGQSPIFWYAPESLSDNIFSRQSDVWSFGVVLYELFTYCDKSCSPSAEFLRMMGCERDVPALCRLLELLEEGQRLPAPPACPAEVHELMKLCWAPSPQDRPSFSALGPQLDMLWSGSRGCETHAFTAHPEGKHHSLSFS
Put plainly: biochemical.

A further assay concerns the target T3, Aurora-2 (Aurora A) (Homo sapiens, UniProt O14965).
T3 sequence (O14965 1-403): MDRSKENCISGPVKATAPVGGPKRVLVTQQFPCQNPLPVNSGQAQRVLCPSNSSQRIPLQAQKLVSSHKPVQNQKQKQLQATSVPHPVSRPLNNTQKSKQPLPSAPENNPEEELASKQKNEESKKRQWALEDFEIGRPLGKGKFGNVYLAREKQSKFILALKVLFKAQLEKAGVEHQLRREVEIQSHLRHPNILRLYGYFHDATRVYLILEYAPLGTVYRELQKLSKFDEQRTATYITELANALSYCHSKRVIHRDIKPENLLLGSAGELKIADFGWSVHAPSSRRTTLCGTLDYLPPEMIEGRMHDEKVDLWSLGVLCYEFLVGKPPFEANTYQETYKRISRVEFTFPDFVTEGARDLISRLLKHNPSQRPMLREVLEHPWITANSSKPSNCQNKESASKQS
In words: Aurora-2 (Aurora A) inhibition assay, coupled enzyme. It is filed as biochemical. The note with it: read-out: Aurora A kinase Ki value. In a few lines: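 These rates came from NADH consumption coupled through pyruvate kinase and lactate dehydrogenase (100 mM Hepes pH 7.5, 10 mM MgCl2, 300 μM NADH). Aurora-2 was present at 40 nM, and the reaction ran at 30 °C after a 10 min preincubation.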

In another assay the target is Aurora-1 (Aurora B) (Homo sapiens, UniProt Q96GD4). Put plainly: Aurora-1 (Aurora B) inhibition assay (radiometric). The format is biochemical. The note with it: read-out: Aurora B kinase Ki value. In a few lines: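 Ki values come from non-linear regression of background-corrected initial-rate data. The enzyme was preincubated 10 min at 25° C with compound, then reacted 3 h with 800 μM (final) [γ-^33P]-ATP in HEPES pH 7.5/MgCl2/BSA/glycerol buffer. The reaction was stopped with phosphoric acid and substrate-bound ^33P counted on phosphocellulose.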

Setting [1] is: COLO 205, Colo205 cells, incubated for 96 hours.

In general, IC50 refers to the concentration that gives 50% inhibition.

Molecules are shown by their SMILES. Like-named read-outs stand apart in the source and are kept apart here.

Chain of Aurora-1 (Aurora B) (Q96GD4 whole entry): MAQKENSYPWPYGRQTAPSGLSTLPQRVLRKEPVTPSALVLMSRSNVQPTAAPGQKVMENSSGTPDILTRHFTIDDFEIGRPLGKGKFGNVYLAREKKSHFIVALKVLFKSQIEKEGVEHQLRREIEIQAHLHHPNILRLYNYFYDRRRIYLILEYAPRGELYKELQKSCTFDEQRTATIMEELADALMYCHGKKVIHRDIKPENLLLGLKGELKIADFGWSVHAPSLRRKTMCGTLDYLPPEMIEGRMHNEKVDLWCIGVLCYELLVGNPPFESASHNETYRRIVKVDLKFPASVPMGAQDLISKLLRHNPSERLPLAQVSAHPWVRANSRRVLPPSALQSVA
Description for JAK3: Reactions were carried out in a kinase buffer containing 100 mM HEPES (pH 7.4), 1 mM DTT, 10 mM MgCl2, 25 mM NaCl, and 0.01% BSA. Substrate concentrations in the assay were 5 μM ATP (200 uCi/μmole ATP) and 1 μM poly(Glu)4Tyr. Reactions were carried out at 25° C. and 1 nM JAK3.
To each well of a 96 well polycarbonate plate was added 1.5 μl of a candidate JAK3 inhibitor along with 50 μl of kinase buffer containing 2 μM poly(Glu)4Tyr and 10 μM ATP. This was then mixed and 50 μl of kinase buffer containing 2 nM JAK3 enzyme was added to start the reaction. After 20 minutes at room temperature (25 C), the reaction was stopped with 50 μl of 20% trichloroacetic acid (TCA) that also contained 0.4 mM ATP. The entire contents of each well were then transferred to a 96 well glass fiber filter plate using a TomTek Cell Harvester. After washing, 60 μl of scintillation fluid was added and ^33P incorporation detected on a Perkin Elmer TopCount.

With `O=C(Nc1ccc(Sc2nc(Nc3cc(C4CC4)[nH]n3)cc(N3CCC3)n2)cc1)c1ccccc1Cl` [Compound 65], the concentration for half-maximal inhibition (IC50) in the assay with Colo205 cells (setting [1]) was 50 to 1000 nM. The results for the Ki at human Itk kinase and at JAK3 (read-out: JAK3 Ki value) were no more than 100 nM and no more than 10 nM, respectively.

As to `COc1ccccc1C(=O)Nc1ccc(Sc2nc(Nc3cc(C)[nH]n3)cc(N3CCC3)n2)cc1` [Compound 32], the IC50 in the assay on Colo205 cells (COLO 205, 96 h) lay in the range of 50 to 1000 nM. The Ki at human Itk kinase was in the range of 100 to 1000 nM.

Turning to `Cc1cc(Nc2cc(N3CCC3)nc(Sc3ccc(NC(=O)c4ccccc4C(F)(F)F)cc3)n2)[nH]n1` [Compound 56], the IC50 is 30 to 200 nM in the assay with Colo205 cells (COLO 205, Colo205 cells, incubated for 72 hours) and no more than 50 nM in the assay with Colo205 cells (setting [1]). In addition, the Ki on human Itk kinase was 100 to 1000 nM.

With `Cc1cc(Nc2cc(N3CCC3)nc(Sc3ccc(NC(=O)c4cccc(F)c4F)cc3)n2)n[nH]1` [Compound 33], the values for the Ki on Aurora-2 (Aurora A) and at human Itk kinase were 1 to 5 nM and 100 to 1000 nM, respectively. Further, the 50% inhibitory concentration (IC50) in the assay on Colo205 cells (COLO 205, 96 h) is 50 to 1000 nM.

Take `Cc1cc(Nc2cc(N3CCC3)nc(Sc3ccc(NC(=O)c4cccc(C)c4Cl)cc3)n2)n[nH]1` [Compound 161]: the IC50 in the assay on Colo205 cells (setting [1]) fell in the range of 50 to 1000 nM. For the same molecule, the Ki on human Itk kinase is 100 to 1000 nM; at JAK3 (read-out: JAK3 Ki value) it was no more than 10 nM.

Consider `Cc1cc(Nc2cc(N3CCC3)nc(Sc3ccc(NC(=O)c4c(Cl)cccc4Cl)cc3)n2)n[nH]1` [Compound 46], for which the IC50 in the assay on Colo205 cells (COLO 205, 96 h) was 50 to 1000 nM. The Ki at human Itk kinase was no more than 100 nM.

Regarding `Cc1cccc(C(=O)Nc2ccc(Sc3nc(Nc4cc(C)[nH]n4)cc(N4CCC4)n3)cc2)c1` [Compound 29], in the assay with Colo205 cells (COLO 205, 96 h), the half-inhibitory concentration (IC50) lay within 50 to 1000 nM. Further, the Ki on human Itk kinase was 100 to 1000 nM.

Consider `Cc1cc(Nc2cc(N3CCC3)nc(Sc3ccc(NC(=O)c4ccccc4C)cc3)n2)n[nH]1` [Compound 31], for which the IC50 with Colo205 cells (COLO 205, 96 h) lay in the range of 50 to 1000 nM. In addition, on human Itk kinase, the Ki fell in the range of 100 to 1000 nM.

For the molecule `Cc1cc(Nc2cc(N3CCC3)nc(Sc3ccc(NC(=O)c4ccccc4F)cc3)n2)n[nH]1` [Compound 9], the IC50 with Colo205 cells (setting [1]) lay within 50 to 1000 nM. Also, the figures for the Ki at human Itk kinase and at Aurora-1 (Aurora B) were 100 to 1000 nM and no more than 10 nM, respectively.

On to `CCc1cccc(C(=O)Nc2ccc(Sc3nc(Nc4cc(C)[nH]n4)cc(N4CCC4)n3)cc2)c1Cl` [Compound 164], for which the IC50 with Colo205 cells (setting [1]) is no more than 50 nM. In addition, the Ki on human Itk kinase is 100 to 1000 nM; on JAK3, no more than 10 nM.

Turning to `O=C(Nc1ccc(Sc2nc(Nc3cc(CO)[nH]n3)cc(N3CCC3)n2)cc1)c1ccccc1Cl` [Compound 75], the Ki on Aurora-2 (Aurora A) fell in the range of 5 to 200 nM; at human Itk kinase, 1000 to 2000 nM; at Aurora-1 (Aurora B) it was 50 to 2000 nM.

(Values after US8637511B2, “Aminopyrimidines useful as kinase inhibitors” (Vertex Pharmaceuticals Incorporated, priority 2005, dated 2014).)
